Data published in ChEMBL document CHEMBL1148635, “Discovery, structure-activity relationship, and pharmacological evaluation of (5-substituted-pyrrolidinyl-2-carbonyl)-2-cyanopyrrolidines as potent dipeptidyl peptidase IV inhibitors” (J Med Chem, 2006).

How the values were obtained:
Dipeptidyl peptidase 2 = Dipeptidyl peptidase 2 (Homo sapiens, UniProt Q9UHL4); test: Inhibition of DPP7 by tight-binding assay
Prolyl endopeptidase = target: T1, Prolyl endopeptidase (Homo sapiens, UniProt P48147); test: Inhibition of POP by tight-binding assay
T1 sequence (P48147 whole entry): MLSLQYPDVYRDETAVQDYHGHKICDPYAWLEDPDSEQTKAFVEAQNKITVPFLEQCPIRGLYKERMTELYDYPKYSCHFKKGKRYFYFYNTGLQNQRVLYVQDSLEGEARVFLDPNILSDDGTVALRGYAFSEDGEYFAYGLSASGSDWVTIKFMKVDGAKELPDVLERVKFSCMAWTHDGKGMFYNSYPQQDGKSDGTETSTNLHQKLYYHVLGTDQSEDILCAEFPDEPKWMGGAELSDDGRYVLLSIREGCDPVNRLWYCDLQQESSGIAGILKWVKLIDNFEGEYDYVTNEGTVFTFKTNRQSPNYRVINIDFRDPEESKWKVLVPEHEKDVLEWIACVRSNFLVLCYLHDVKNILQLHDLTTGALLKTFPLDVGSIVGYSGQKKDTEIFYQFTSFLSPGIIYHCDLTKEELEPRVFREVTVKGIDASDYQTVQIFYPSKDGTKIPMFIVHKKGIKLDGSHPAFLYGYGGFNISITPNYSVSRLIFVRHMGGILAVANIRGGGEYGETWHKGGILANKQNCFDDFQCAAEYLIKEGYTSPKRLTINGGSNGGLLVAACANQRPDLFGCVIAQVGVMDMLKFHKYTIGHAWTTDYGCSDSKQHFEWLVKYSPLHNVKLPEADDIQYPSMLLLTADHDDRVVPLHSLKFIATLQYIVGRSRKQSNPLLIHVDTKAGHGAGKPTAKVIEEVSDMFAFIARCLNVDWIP

[1] = Half life in phosphate buffer at pH 7.4 at 37 degreeC; type: ADME
[2] = Cmax in Sprague-Dawley rat at 5 mg/kg, po; type: ADME, organism-based; parameters: dose 5 mg/kg, route oral; settings: in vivo
[3] = Plasma clearance in Sprague-Dawley rat at 5 mg/kg, iv; type: ADME, organism-based; parameters: dose 5 mg/kg, route intravenous
[4] = Oral bioavailability in Sprague-Dawley rat at 5 mg/kg; type: ADME, organism-based; settings: in vivo
[5] = Volume of distribution in Sprague-Dawley rat at 5 mg/kg; type: ADME, organism-based; parameters: dose 5 mg/kg; settings: in vivo, read-out: Vdss
[6] = Half life in Sprague-Dawley rat at 5 mg/kg, po; type: ADME, organism-based; parameters: dose 5 mg/kg, route oral; settings: in vivo
Rattus norvegicus [7] = test: AUC in Sprague-Dawley rat at 5 mg/kg, po; type: ADME, organism-based, Plasma; parameters: dose 5 mg/kg, route oral; settings: in vivo
Dipeptidyl peptidase 4 [8] = target: T2, Dipeptidyl peptidase 4 (Homo sapiens, UniProt P27487); test: Inhibition of human recombinant DPP4 by tight-binding assay
T2 sequence (P27487 whole entry): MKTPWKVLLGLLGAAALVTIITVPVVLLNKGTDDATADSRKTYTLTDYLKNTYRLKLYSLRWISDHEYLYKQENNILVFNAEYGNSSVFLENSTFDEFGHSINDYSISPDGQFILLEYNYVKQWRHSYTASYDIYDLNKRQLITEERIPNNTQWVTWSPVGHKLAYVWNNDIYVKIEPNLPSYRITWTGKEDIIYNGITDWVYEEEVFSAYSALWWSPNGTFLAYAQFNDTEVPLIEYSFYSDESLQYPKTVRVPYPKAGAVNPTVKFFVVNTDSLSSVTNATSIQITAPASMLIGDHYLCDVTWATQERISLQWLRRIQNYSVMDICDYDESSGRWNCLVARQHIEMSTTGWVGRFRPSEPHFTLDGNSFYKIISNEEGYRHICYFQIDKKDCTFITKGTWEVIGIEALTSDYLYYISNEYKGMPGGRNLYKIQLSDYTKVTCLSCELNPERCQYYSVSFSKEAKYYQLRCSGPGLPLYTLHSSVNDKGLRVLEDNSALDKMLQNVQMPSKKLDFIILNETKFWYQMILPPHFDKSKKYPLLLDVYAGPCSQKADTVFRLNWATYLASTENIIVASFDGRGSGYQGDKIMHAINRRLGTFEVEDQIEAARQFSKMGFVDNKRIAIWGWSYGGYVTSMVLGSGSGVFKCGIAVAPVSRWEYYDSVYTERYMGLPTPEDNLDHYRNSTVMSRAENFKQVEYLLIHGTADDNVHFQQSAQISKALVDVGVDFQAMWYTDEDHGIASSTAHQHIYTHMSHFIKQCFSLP

Dipeptidyl peptidase 4 [9] = target: T2, Dipeptidyl peptidase 4; test: Inhibition of human recombinant DPP4 by tight-binding assay in presence of 10% rat plasma; type: cell-free
Dipeptidyl peptidase 4 [10] = target: T2, Dipeptidyl peptidase 4; test: Inhibition of human recombinant DPP4
Rattus norvegicus [11] = test: Lowering of blood glucose level in ZDF rat at 0.1 mg/kg, po by oral glucose tolerance test; type: functional
Rattus norvegicus [12] = test: Lowering of blood glucose level in ZDF rat at 3 mg/kg, po by oral glucose tolerance test; type: functional
Rattus norvegicus [13] = test: Lowering of blood glucose level in ZDF rat at 1 mg/kg, po by oral glucose tolerance test; type: functional

Compound	half-life [1]	Cmax [2]	clearance [3]	bioavailability [4]	Vd [5]	half-life [6]	AUC (Rattus norvegicus [7])	other results
N#C[C@@H]1CCCN1C(=O)[C@@H]1CC[C@H](COc2cc(C(=O)O)c[n+]([O-])c2Cl)N1	–	–	–	–	–	–	–	Ki (Dipeptidyl peptidase 2): > 3 µM; Ki (Prolyl endopeptidase): 1.53 µM
CC(C)[C@H]1CC[C@@H](C(=O)N2CCC[C@H]2C#N)N1 (mixture of isomers)	> 100 h	–	–	–	–	–	–	–
N#C[C@@H]1CCCN1C(=O)[C@@H]1CC[C@H](COc2cc([N+](=O)[O-])c(Cl)cc2Cl)N1	–	805 ng/mL	3.83 mL/min/kg	13.5%	0.22 L/kg	3.6 h	2990 ng·h/mL	–
C[C@H]1CC[C@@H](C(=O)N2CCC[C@H]2C#N)N1	6.5 h	752 ng/mL	74.8 mL/min/kg	58%	13.5 L/kg	1.1 h	652 ng·h/mL	–
N#C[C@@H]1CCCN1C(=O)[C@@H]1CC[C@H](COc2ccc(Br)cc2)N1	7.8 h	–	–	–	–	–	–	–
N#C[C@@H]1CCCN1C(=O)[C@@H]1CC[C@H](COc2ccccc2Cc2ccccc2)N1	–	–	–	–	–	–	–	Ki (Dipeptidyl peptidase 4 [8]): Not Active; Ki (Dipeptidyl peptidase 4 [9]): Not Active; Ki (Dipeptidyl peptidase 4 [10]): > 3 µM
CC(C)(C)c1cc(C(=O)O)ccc1OC[C@H]1CC[C@@H](C(=O)N2CCC[C@H]2C#N)N1	65.4 h	5580 ng/mL	5.33 mL/min/kg	63%	1 L/kg	4.2 h	9630 ng·h/mL	–
N#C[C@@H]1CCCN1C(=O)[C@@H]1CC[C@H](COc2cc(C(=O)O)ccc2Cl)N1 (mixture of isomers)	> 100 h	146 ng/mL	4.83 mL/min/kg	7%	0.35 L/kg	6.9 h	1280 ng·h/mL	Ki (Dipeptidyl peptidase 2): > 3 µM
N#Cc1ccc(OC[C@H]2CC[C@@H](C(=O)N3CCC[C@H]3C#N)N2)c(Cl)c1	16.7 h	4540 ng/mL	10.5 mL/min/kg	39%	0.2 L/kg	1.5 h	3140 ng·h/mL	–
N#C[C@@H]1CCCN1C(=O)[C@@H]1CC[C@H](COc2ccc3ccccc3c2)N1	10.8 h	–	–	–	–	–	–	–
N#C[C@@H]1CCCN1C(=O)[C@@H]1CC[C@H](COc2ccc(C(=O)O)cc2Cl)N1	19.8 h	–	–	–	–	–	–	Ki (Prolyl endopeptidase): 1.74 µM
N#C[C@@H]1CCCN1C(=O)[C@@H]1CC[C@H](COc2cc(C(=O)O)cnc2Cl)N1	–	29 ng/mL	16 mL/min/kg	2%	0.35 L/kg	1.2 h	87 ng·h/mL	Ki (Dipeptidyl peptidase 2): > 3 µM; Ki (Prolyl endopeptidase): 0.666 µM
CS(=O)(=O)c1ccc(OC[C@H]2CC[C@@H](C(=O)N3CCC[C@H]3C#N)N2)c(Br)c1	–	3730 ng/mL	14 mL/min/kg	40%	0.3 L/kg	2.2 h	2920 ng·h/mL	–
N#C[C@@H]1CCCN1C(=O)[C@@H]1CCCN1	1.3 h	–	–	–	–	–	–	–
CC(C)(C)c1ccccc1OC[C@H]1CC[C@@H](C(=O)N2CCC[C@H]2C#N)N1	41.2 h	25.2 ng/mL	85 mL/min/kg	3%	1.14 L/kg	1.3 h	28 ng·h/mL	–
N#C[C@@H]1CCCN1C(=O)[C@@H]1CC[C@H](COc2ccccc2Cl)N1	–	–	–	–	–	–	–	Ki (Prolyl endopeptidase): 2.76 µM
CC[C@H]1CC[C@@H](C(=O)N2CCC[C@H]2C#N)N1	16.4 h	–	–	–	–	–	–	–
CC(C)c1cc(C(=O)O)ccc1OC[C@H]1CC[C@@H](C(=O)N2CCC[C@H]2C#N)N1	–	2470 ng/mL	7 mL/min/kg	34%	0.73 L/kg	3.5 h	4110 ng·h/mL	Activity (Rattus norvegicus [11]): 3%; Ki (Dipeptidyl peptidase 2): > 3 µM; Activity (Rattus norvegicus [12]): 30%; Activity (Rattus norvegicus [13]): 17%
